Data on 21 compounds can be found in patent US8975417B2, “Pyrazolopyrrolidine derivatives and their use in the treatment of disease” (Novartis AG, priority 2013, dated 2015).

The target in assay [1] is His-Brd3(20-477) (Homo sapiens (Human), UniProt Q15059). Briefly: TR-FRET in-vitro binding assay for BRD3. Particulars: biochemical. Put shortly: (§1)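 Eight-point dilution series tested against in-house His-BRD2(60-472), BRD3(20-477) or BRD4(44-477) (45 nM in dispensed solution) binding acetyl-histone H4 (AcK5,8,12,16; 60 nM in dispensed solution). Incubation 35 min at 30 °C, pH 7.5 HEPES buffer; detection by TR-FRET using Eu-anti-His6 and streptavidin-allophycocyanin.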
His-Brd3(20-477), sequence (Q15059 20-477): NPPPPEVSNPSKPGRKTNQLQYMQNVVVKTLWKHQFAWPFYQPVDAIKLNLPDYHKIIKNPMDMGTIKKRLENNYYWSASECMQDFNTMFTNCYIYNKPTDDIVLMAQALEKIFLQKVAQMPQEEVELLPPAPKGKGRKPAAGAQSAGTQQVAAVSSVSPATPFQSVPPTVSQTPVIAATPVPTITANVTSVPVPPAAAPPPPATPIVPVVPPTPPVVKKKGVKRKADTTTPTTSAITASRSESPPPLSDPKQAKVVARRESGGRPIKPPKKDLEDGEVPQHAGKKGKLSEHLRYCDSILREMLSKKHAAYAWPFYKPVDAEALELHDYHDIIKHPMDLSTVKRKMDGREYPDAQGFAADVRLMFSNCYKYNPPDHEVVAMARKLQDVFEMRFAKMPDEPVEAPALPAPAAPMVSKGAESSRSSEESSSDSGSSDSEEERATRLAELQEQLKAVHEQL
For orientation: In TR-FRET formats the signal depends on donor and acceptor labels being close together.

Assay [2] addresses His-Brd2(60-472) (Homo sapiens (Human), UniProt P25440). Briefly: TR-FRET in-vitro binding assay for BRD2. Particulars: biochemical. Put shortly:
as §1

In assay [3] the target is nuclear BRD4-NUT foci in HCC2494 NUT midline carcinoma cells (Homo sapiens (Human), UniProt O60885+Q86Y26). Briefly: Nut-foci formation assay. The following applies: 24 hours, read-out: HCS Brd4-NUT IC50. It counts as cell-based. Put shortly: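 Read-out is number and intensity of nuclear NUT foci by immunofluorescence imaging, relative to 0.1% DMSO set as 100. Compounds were tested as 3-fold series starting at 10 μM on HCC2494 NUT midline carcinoma cells for 24 h. Four-parameter fitting gave IC50.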

His-Brd2(60-472), sequence (P25440 60-472): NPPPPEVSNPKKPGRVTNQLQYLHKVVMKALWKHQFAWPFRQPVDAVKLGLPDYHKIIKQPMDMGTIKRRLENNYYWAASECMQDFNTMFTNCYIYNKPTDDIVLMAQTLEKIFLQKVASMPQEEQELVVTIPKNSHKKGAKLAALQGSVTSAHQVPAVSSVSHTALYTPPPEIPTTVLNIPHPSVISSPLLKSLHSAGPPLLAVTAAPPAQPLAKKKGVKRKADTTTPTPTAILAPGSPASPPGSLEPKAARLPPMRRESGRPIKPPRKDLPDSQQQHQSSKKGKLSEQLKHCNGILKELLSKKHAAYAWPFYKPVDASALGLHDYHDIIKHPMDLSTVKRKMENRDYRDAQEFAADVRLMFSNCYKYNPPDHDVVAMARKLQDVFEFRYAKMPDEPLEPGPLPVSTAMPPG

By IC50 is commonly meant the concentration that inhibits the measured activity by half. Turning to `Cc1nn(C(C)C)c2c1[C@@H](c1ccc(Cl)cc1)N(c1cc(C)c(=O)n(C)c1)C2=O` [Example 104, (R)-4-(4-chlorophenyl)-5-(1,5-dimethyl-6-oxo-1,6-dihydropyridin-3-yl)-1-isopropyl-3-methyl-4,5-dihydropyrrolo[3,4-c]pyrazol-6(1H)-one], the IC50 in assay [1] came out at 15 nM; in assay [2], 14 nM; in assay [3], 11.3 nM.

On to `CCc1nn(C)c2c1C(c1ccc(Cl)cc1)N(c1cc(OC)c3nnc(C)n3c1)C2=O` (stereo not drawn) [Example 105, 4-(4-chlorophenol)-3-ethyl-5-(8-methoxy-3-methyl-[1,2,4]triazolo[4,3-a]pyridin-6-yl)-1-methyl-4,5-dihydropyrrolo[3,4-c]pyrazol-6(1H)-one], for which the IC50 was found to be 150 nM in assay [1], 130 nM in assay [2] and 98.6 nM in assay [3].

As for `CCc1nn(C2CC2)c2c1[C@H](c1ccc(Cl)cc1)N(c1cc(C)c3nnc(C)n3c1)C2=O` [Example 106, (S)-4-(4-chlorophenyl)-1-cyclopropyl-5-(3,8-dimethyl-[1,2,4]triazolo[4,3-a]pyridin-6-yl)-3-ethyl-4,5-dihydropyrrolo[3,4-c]pyrazol-6(1H)-one], the IC50 was 4400 nM in assay [1], 2900 nM in assay [2] and 2240 nM in assay [3].

Take `CCc1nn(C2CC2)c2c1[C@@H](c1ccc(Cl)cc1)N(c1cc(C)c3nnc(C)n3c1)C2=O` [Example 107, (R)-4-(4-chlorophenyl)-1-cyclopropyl-5-(3,8-dimethyl-[1,2,4]triazolo[4,3-a]pyridin-6-yl)-3-ethyl-4,5-dihydropyrrolo[3,4-c]pyrazol-6(1H)-one]: the figures for the IC50 in assay [1], in assay [2] and in assay [3] were 13 nM, 14 nM and 2.9 nM, respectively.

As to `CCc1nn(CCOCC(F)(F)F)c2c1C(c1ccc(Cl)cc1)N(c1cc(OC)c3nnc(C)n3c1)C2=O` (stereo not drawn) [Example 108, 4-(4-chlorophenyl)-3-ethyl-5-(8-methoxy-3-methyl-[1,2,4]triazolo[4,3-a]pyridin-6-yl)-1-(2-(2,2,2-trifluoroethoxy)ethyl)-4,5-dihydropyrrolo[3,4-c]pyrazol-6(1H)-one], the figures for the IC50 in assay [1], in assay [2] and in assay [3] were 280 nM, 210 nM and 635 nM, respectively.

On to `COc1ncccc1-n1nc(C)c2c1C(=O)N(c1cc(C)c3nnn(C)c3n1)C2c1ccc(Cl)cc1` (stereo not drawn) [Example 109, 4-(4-chlorophenyl)-5-(3,7-dimethyl-3H-[1,2,3]triazolo[4,5-b]pyridin-5-yl)-1-(2-methoxypyridin-3-yl)-3-methyl-4,5-dihydropyrrolo[3,4-c]pyrazol-6(1H)-one], for which the 50% inhibitory concentration (IC50) in assay [1] stood at 27 nM; in assay [2], 27 nM; in assay [3], 43.8 nM.

On to `Cc1nn(C2CC2)c2c1C(c1ccc(Cl)cc1)N(c1cc(C)c3nnn(C)c3n1)C2=O` (stereo not drawn) [Example 110, 4-(4-chlorophenyl)-1-cyclopropyl-5-(3,7-dimethyl-3H-[1,2,3]triazolo[4,5-b]pyridin-5-yl)-3-methyl-4,5-dihydropyrrolo[3,4-c]pyrazol-6(1H)-one], for which the half-maximal inhibitory concentration (IC50) in assay [1] turned out to be 14 nM; in assay [2], 18 nM; in assay [3], 6.42 nM.

On to `COc1ncccc1-n1nc(C)c2c1C(=O)N(c1cc(C)c3nnc(C)n3n1)C2c1ccc(Cl)cc1` (stereo not drawn) [Example 111, 4-(4-chlorophenyl)-5-(3,8-dimethyl-[1,2,4]triazolo[4,3-b]pyridazin-6-yl)-1-(2-methoxypyridin-3-yl)-3-methyl-4,5-dihydropyrrolo[3,4-c]pyrazol-6(1H)-one], for which the concentration for half-maximal inhibition (IC50) in assay [1] was found to be 24 nM; in assay [2], 32 nM; in assay [3], 34.3 nM.

`Cc1nn(C2CC2)c2c1C(c1ccc(Cl)cc1)N(c1cc(N(C)C(=O)OC(C)(C)C)c3nnc(C)n3n1)C2=O` (stereo not drawn) [Example 112, tert-butyl (6-(4-(4-chlorophenyl)-1-cyclopropyl-3-methyl-6-oxopyrrolo[3,4-c]pyrazol-5(1H,4H,6H)-yl)-3-methyl-[1,2,4]triazolo[4,3-b]pyridazin-8-yl)(methyl)carbamate]: the values for the IC50 in assay [1], in assay [2] and in assay [3] were over 37000 nM, over 37000 nM and 3350 nM, respectively.

As to `Cc1nn(-c2ccnn2C)c2c1C(c1ccc(Cl)cc1)N(c1cc(C)c3nnc(C)n3n1)C2=O` (stereo not drawn) [Example 114, 4-(4-chlorophenyl)-5-(3,8-dimethyl-[1,2,4]triazolo[4,3-b]pyridazin-6-yl)-3-methyl-1-(1-methyl-1H-pyrazol-5-yl)-4,5-dihydropyrrolo[3,4-c]pyrazol-6(1H)-one], the values for the concentration for half-maximal inhibition (IC50) in assay [1], in assay [2] and in assay [3] were 37 nM, 35 nM and 23.2 nM, respectively.

On to `CCn1nc2c(c1C)C(c1ccc(Cl)cc1)N(c1cc(C)c3nnc(C)n3c1)C2=O` (stereo not drawn) [Example 115, 4-(4-chlorophenyl)-5-(3,8-dimethyl-[1,2,4]triazolo[4,3-a]pyridin-6-yl)-2-ethyl-3-methyl-4,5-dihydropyrrolo[3,4-c]pyrazol-6(2H)-one], for which the IC50 amounted to 46 nM in assay [1], 48 nM in assay [2] and 39.7 nM in assay [3].

Consider `CCn1nc(C)c2c1C(=O)N(c1cc(C)c3nnc(C)n3c1)C2c1ccc(Cl)cc1` (stereo not drawn) [Example 116, 4-(4-chlorophenyl)-5-(3,8-dimethyl-[1,2,4]triazolo[4,3-a]pyridin-6-yl)-1-ethyl-3-methyl-4,5-dihydropyrrolo[3,4-c]pyrazol-6(1H)-one], for which the figures for the concentration for half-maximal inhibition (IC50) in assay [1], in assay [2] and in assay [3] were 32 nM, 36 nM and 27 nM, respectively.

Regarding `Cc1cc(N2C(=O)c3c(c(C4CC4)nn3-c3ccnn3C)C2c2ccc(Cl)cc2)cn2c(C)nnc12` (stereo not drawn) [Example 117, 4-(4-chlorophenyl)-3-cyclopropyl-5-(3,8-dimethyl-[1,2,4]triazolo[4,3-a]pyridin-6-yl)-1-(1-methyl-1H-pyrazol-5-yl)-4,5-dihydropyrrolo[3,4-c]pyrazol-6(1H)-one], the figures for the 50% inhibitory concentration (IC50) in assay [1], in assay [2] and in assay [3] were 38 nM, 34 nM and 24.3 nM, respectively.

For the compound `Cc1nn(-c2ccnn2C)c2c1[C@@H](c1ccc(Cl)cc1)N(c1cc(C)c(=O)n(C)c1)C2=O` [Example 120, (R)-4-(4-chlorophenyl)-5-(1,5-dimethyl-6-oxo-1,6-dihydropyridin-3-yl)-3-methyl-1-(1-methyl-1H-pyrazol-5-yl)-4,5-dihydropyrrolo[3,4-c]pyrazol-6(1H)-one], the results for the IC50 in assay [1], in assay [2] and in assay [3] were 83 nM, 78 nM and 65.4 nM, respectively.

Regarding `Cc1nn(-c2ccnn2C)c2c1[C@H](c1ccc(Cl)cc1)N(c1cc(C)c(=O)n(C)c1)C2=O` [Example 121, (S)-4-(4-chlorophenyl)-5-(1,5-dimethyl-6-oxo-1,6-dihydropyridin-3-yl)-3-methyl-1-(1-methyl-1H-pyrazol-5-yl)-4,5-dihydropyrrolo[3,4-c]pyrazol-6(1H)-one], the results for the half-inhibitory concentration (IC50) in assay [1], in assay [2] and in assay [3] were 5400 nM, 5300 nM and 6110 nM, respectively.

As for `Cc1nn(-c2ccnn2C)c2c1[C@H](c1ccc(Cl)cc1)N(c1cc(C)c3nnc(C)n3c1)C2=O` [Example 124, (S)-4-(4-chlorophenyl)-5-(3,8-dimethyl-[1,2,4]triazolo[4,3-a]pyridin-6-yl)-3-methyl-1-(1-methyl-1H-pyrazol-5-yl)-4,5-dihydropyrrolo[3,4-c]pyrazol-6(1H)-one], the IC50 in assay [1] was found to be 37000 nM; in assay [2], 29000 nM; in assay [3] it was 1730 nM.

For the compound `Cc1nn(-c2ccnn2C)c2c1[C@@H](c1ccc(Cl)cc1)N(c1cc(C)c3nnc(C)n3c1)C2=O` [Example 125, (R)-4-(4-chlorophenyl)-5-(3,8-dimethyl-[1,2,4]triazolo[4,3-a]pyridin-6-yl)-3-methyl-1-(1-methyl-1H-pyrazol-5-yl)-4,5-dihydropyrrolo[3,4-c]pyrazol-6(1H)-one], the half-maximal inhibitory concentration (IC50) in assay [1] worked out at 32 nM; in assay [2], 32 nM; in assay [3], 32.3 nM.

Take `COc1ncccc1-n1nc(C)c2c1C(=O)N(c1cc(C)c(=O)n(C)c1)[C@H]2c1ccc(Cl)cc1` [Example 127, (S)-4-(4-chlorophenyl)-5-(1,5-dimethyl-6-oxo-1,6-dihydropyridin-3-yl)-1-(2-methoxypyridin-3-yl)-3-methyl-4,5-dihydropyrrolo[3,4-c]pyrazol-6(1H)-one]: the half-maximal inhibitory concentration (IC50) is 5100 nM in assay [1], 4400 nM in assay [2] and over 10000 nM in assay [3].

On to `COc1ncccc1-n1nc(C)c2c1C(=O)N(c1cc(C)c(=O)n(C)c1)[C@@H]2c1ccc(Cl)cc1` [Example 128, (R)-4-(4-chlorophenyl)-5-(1,5-dimethyl-6-oxo-1,6-dihydropyridin-3-yl)-1-(2-methoxypyridin-3-yl)-3-methyl-4,5-dihydropyrrolo[3,4-c]pyrazol-6(1H)-one], for which the IC50 in assay [1] came to 37 nM; in assay [2], 30 nM; in assay [3] it was 53.3 nM.

With `Cc1cc(N2C(=O)c3c(c(CO)nn3C3CC3)C2c2ccc(Cl)cc2)cn2c(C)nnc12` (stereo not drawn) [Example 131, 4-(4-chlorophenyl)-1-cyclopropyl-5-(3,8-dimethyl-[1,2,4]triazolo[4,3-a]pyridin-6-yl)-3-(hydroxymethyl)-4,5-dihydropyrrolo[3,4-c]pyrazol-6(1H)-one], the 50% inhibitory concentration (IC50) in assay [1] came to 52 nM; in assay [2] it was 46 nM; in assay [3], 27.7 nM.

`Cc1nn(C2COC2)c2c1C(c1ccc(Cl)cc1)N(c1cc(C)c(=O)n(C)c1)C2=O` (stereo not drawn) [Example 135, 4-(4-chlorophenyl)-5-(1,5-dimethyl-6-oxo-1,6-dihydropyridin-3-yl)-3-methyl-1-(oxetan-3-yl)-4,5-dihydropyrrolo[3,4-c]pyrazol-6(1H)-one]: the IC50 in assay [1] is 130 nM; in assay [2], 150 nM; in assay [3], 93.4 nM.
